Measurements taken from ChEMBL document CHEMBL4673260, “Pyridine alkaloids with activity in the central nervous system” (Bioorg Med Chem, 2020).

How the values were obtained:
[1] = Neuroprotective activity in rat neuron assessed as glutamic acid induced intracellular calcium level at 3 ug/ml preincubated for 5 mins followed by glutamic acid stimulation and measured for 30 mins (reference value: 305%); format: functional; conditions: time 35 min
[2] = Neuroprotective activity in rat neuron assessed as NMDA-induced intracellular calcium level at 1 ug/ml preincubated for 5 mins followed by glutamic acid stimulation and measured for 20 mins (reference value: 235%); format: functional; conditions: time 25 min
[3] = Neuroprotective activity in rat neuron assessed as glutamic acid induced intracellular calcium level at 1 ug/ml preincubated for 5 mins followed by glutamic acid stimulation and measured for 30 mins (reference value: 305%); format: functional; conditions: time 35 min
[4] = Neuroprotective activity in rat neuron assessed as glutamic acid induced intracellular calcium level at 0.5 ug/ml preincubated for 5 mins followed by glutamic acid stimulation and measured for 30 mins (reference value: 305%); format: functional; conditions: time 35 min
[5] = molecular target: Neuronal acetylcholine receptor; alpha3/beta4 (Rattus norvegicus, UniProt P04757+P12392); assay: Agonist activity at rat alpha3beta4 nAChR expressed in Xenopus laevis oocytes; format: cell-based, Oocyte
[6] = molecular target: T1, Neuronal acetylcholine receptor subunit alpha-7 (Rattus norvegicus, UniProt Q05941); assay: Agonist activity at rat alpha7 nAChR expressed in Xenopus laevis oocytes; format: cell-based, Oocyte
[7] = molecular target: GABA-A receptor alpha-1/beta-1 (Bos taurus, UniProt P08219+P08220)
Description: Competitive inhibition of bovine GABAA alpha1beta1 expressed in Xenopus laevis oocytes

Acetylcholinesterase = Acetylcholinesterase (Bos taurus, UniProt P23795)
[8] = molecular target: 5-hydroxytryptamine receptor 3A (Homo sapiens, UniProt P46098); assay: Displacement of […] from 5-hydroxytryptamine receptor 3A (unknown origin)
[9] = Displacement of [3H]nicotine from neurokinin receptor (unknown origin); set-up: species or system Homo sapiens
Rattus norvegicus [10] = assay: Memory enhancing effect in rat model of mecamylamine-induced amnesia assessed as decrease in latency to find platform at 0.3 to 3 micromol/kg, po by water-navigation test relative to control; format: functional; set-up: scale not given: the % may be the effect or the level left; conditions: dose 0.3-3 µmol/kg; at 0.3 to 3 µmol/kg
[11] = molecular target: T2, Neuronal acetylcholine receptor; alpha4/beta2 (Rattus norvegicus, UniProt P09483+P12390)
Description: Agonist activity at alpha4beta2 nAChR in rat thalamic synaptosomes assessed as increase in 86Rb efflux

[12] = Displacement of [3H]nicotine from sodium channel site2 (unknown origin); set-up: species or system Homo sapiens
[13] = molecular target: T2, Neuronal acetylcholine receptor; alpha4/beta2; assay: Inhbition of [3H] nicotine binding to rat brain alpha4beta2 nAChR
Rattus norvegicus [14] = assay: Memory enhancing effect in Sprague-Dawley rat model of ibotenic-acid-induced impairment of forebrain cholinergic projection system assessed as improvement in reference memory at 0.36 to 1.4 micromol/kg, po by radial arm maze test relative to control; format: functional; conditions: dose 0.36-1.4 µmol/kg
Histamine H3 receptor = Histamine H3 receptor (Homo sapiens, UniProt Q9Y5N1); assay: Displacement of [3H]nicotine from Histamine H3 receptor (unknown origin)
[15] = molecular target: Cholecystokinin receptor type A (Homo sapiens, UniProt P32238); assay: Displacement of [3H]nicotine from cholecystokinin receptor type A (unknown origin)
[16] = molecular target: Muscarinic acetylcholine receptor M2 (Homo sapiens, UniProt P08172); assay: Displacement of [3H]nicotine from muscarinic M2 receptor (unknown origin)
[17] = molecular target: Neuropeptide Y receptor type 2 (Homo sapiens, UniProt P49146); assay: Displacement of [3H]nicotine from NPY2R (unknown origin)
[18] = Acute toxicity in po dosed dog administered as single dose for 28 days; format: organism-based, Canis lupus familiaris; conditions: in vivo, time 28 day
[19] = molecular target: Gastrin/cholecystokinin type B receptor (Homo sapiens, UniProt P32239); assay: Displacement of [3H]nicotine from cholecystokinin receptor type B (unknown origin)
[20] = In vivo agonist activity at nAChR in rat assessed as dopamine level in cortex at 3.6 micromol/kg, sc by microdialysis relative to control; format: functional; conditions: dose 3.6 µmol/kg
Endothelin-1 receptor = Endothelin-1 receptor (Homo sapiens, UniProt P25101); assay: Displacement of [3H]nicotine from Endothelin receptor type A (unknown origin)
[21] = molecular target: 5-hydroxytryptamine receptor 2A (Homo sapiens, UniProt P28223); assay: Displacement of […] from 5-hydroxytryptamine receptor 2A (unknown origin)
[22] = Acute toxicity in po dosed mouse administered as single dose for 28 days; format: organism-based; conditions: in vivo, time 28 day
D(3) dopamine receptor = D(3) dopamine receptor (Homo sapiens, UniProt P35462); assay: Displacement of [3H]nicotine from dopamine D3 receptor (unknown origin)
[23] = molecular target: Endothelin receptor type B (Homo sapiens, UniProt P24530); assay: Displacement of [3H]nicotine from Endothelin receptor type B (unknown origin)
[24] = In vivo agonist activity at nAChR in rat assessed as acetylcholine level in cortex at 3.6 micromol/kg, sc by microdialysis relative to control; format: functional; conditions: dose 3.6 µmol/kg
[25] = molecular target: Glutamate [NMDA] receptor; assay: Displacement of [3H]nicotine from NMDA receptor (unknown origin); format: protein-complex assay, Homo sapiens
[26] = molecular target: T3, Neuronal acetylcholine receptor; alpha4/beta2 (Rattus norvegicus) (UniProt P09483+P12390); assay: Agonist activity at rat alpha4beta2 expressed in Xenopus oocytes assessed as peak activation at 100 uM relative to control; format: cell-based; conditions: Oocyte, filed as agonist
Rattus norvegicus [27] = assay: Cognitive enhancing effect in Wistar rat assessed as reversal of scopolamine-induced amnesia at 0.6 micromol/kg, sc by passive-avoidance test relative to control; format: functional; conditions: dose 0.6 µmol/kg
Rattus norvegicus [28] = organism: Rattus norvegicus; assay: Agonist activity at nAChR in rat striatal synaptosomes assessed as [3H]dopamine release relative to tetramethylammonium; format: subcellular; conditions: Striatum, filed as agonist
[29] = Acute toxicity in po dosed dog administered as repeated dose for 28 days; format: organism-based, Canis lupus familiaris; conditions: in vivo, time 28 day
[30] = molecular target: Muscarinic acetylcholine receptor M3 (Homo sapiens, UniProt P20309); assay: Displacement of [3H]nicotine from muscarinic M3 receptor (unknown origin)
[31] = Acute toxicity in po dosed mouse administered as repeated dose for 28 days; format: organism-based; conditions: in vivo, time 28 day
[32] = molecular target: T3, Neuronal acetylcholine receptor; alpha4/beta2 (Rattus norvegicus); assay: Agonist activity at alpha4beta2 nAChR in rat thalamic synaptosomes assessed as 86Rb efflux relative to tetramethylammonium; format: subcellular; conditions: Thalamus, filed as agonist
Thromboxane A2 receptor = Thromboxane A2 receptor (Homo sapiens, UniProt P21731); assay: Displacement of [3H]nicotine from Thromboxane A2 (unknown origin)
[33] = Displacement of [3H]nicotine from angiotensin II receptor (unknown origin); set-up: species or system Homo sapiens
[34] = Displacement of [3H]nicotine from dopamine D4.2 receptor (unknown origin); set-up: species or system Homo sapiens
[35] = In vivo agonist activity at nAChR in rat assessed as nor-epinephrine level in cortex at 3.6 micromol/kg, sc by microdialysis relative to control; format: functional; conditions: dose 3.6 µmol/kg
[36] = In vivo agonist activity at nAChR in rat assessed as serotonin level in cortex at 3.6 micromol/kg, sc by microdialysis relative to control; format: functional; conditions: dose 3.6 µmol/kg
[37] = molecular target: 5-hydroxytryptamine receptor 1A (Homo sapiens, UniProt P08908); assay: Displacement of […] from 5-hydroxytryptamine receptor 1A (unknown origin)
B2 bradykinin receptor = B2 bradykinin receptor (Homo sapiens, UniProt P30411); assay: Displacement of […] from B2 bradykinin receptor (unknown origin)
[38] = molecular target: Muscarinic acetylcholine receptor M1 (Homo sapiens, UniProt P11229); assay: Displacement of [3H]nicotine from muscarinic M1 receptor (unknown origin)
[39] = Displacement of [3H]nicotine from Leukotriene B4 receptor (unknown origin); set-up: species or system Homo sapiens
[40] = Antagonist activity at 5HT1 in Wistar rat stomach fundus strip assessed as inhibition of 5-hydroxy-tryptamine evoked contraction preincubated for 20 mins followed by 5-HT addition; format: tissue-based
[41] = molecular target: Neuronal acetylcholine receptor subunit alpha-7 (Rattus norvegicus) (UniProt Q05941); assay: Potency index, ratio of nicotine Ki to test compound Ki for rat alpha7 nAChR
[42] = molecular target: Neuronal acetylcholine receptor subunit alpha-7 (Rattus norvegicus) (UniProt Q05941); assay: Potency index, ratio of nicotine EC50 to test compound EC50 for rat alpha7 nAChR
[43] = molecular target: T2, Neuronal acetylcholine receptor; alpha4/beta2; remark: listed apart in the source
Description: Agonist activity at rat alpha4beta2 nAChR

[44] = molecular target: T2, Neuronal acetylcholine receptor; alpha4/beta2; assay: Binding affinity to rat alpha4beta2 nAChR; format: protein-complex assay
[45] = molecular target: T1, Neuronal acetylcholine receptor subunit alpha-7
Description: Binding affinity to rat alpha7 nAChR

[46] = molecular target: T1, Neuronal acetylcholine receptor subunit alpha-7; remark: listed apart in the source
[47] = molecular target: T3, Neuronal acetylcholine receptor; alpha4/beta2 (Rattus norvegicus); assay: Potency index, ratio of nicotine EC50 to test compound EC50 for agonist activity at rat alpha4beta2 nAChR; format: protein-complex assay
Mus musculus [48] = assay: Anti-analeptic activity in mouse assessed as reduction in corazol-induced convulsion at 25 mg/kg relative to control; format: functional; set-up: scale not given: the % may be the effect or the level left
Mus musculus [49] = assay: Anti-analeptic activity in mouse assessed as reduction in lethality at 125 to 150 mg/kg coadministered with camphor relative to control; format: functional; set-up: scale not given: the % may be the effect or the level left; conditions: dose 125-150 mg/kg
[50] = Protection against strychnine-induced mortality in mouse at 100 mg/kg; format: ADME, organism-based; conditions: in vivo
[51] = Protection against caffeine-induced mortality in mouse at 250 mg/kg; format: ADME, organism-based; conditions: in vivo
Mus musculus [52] = assay: Anti-analeptic activity in mouse assessed as reduction in corazol-induced convulsion at 75 mg/kg relative to control; format: functional; set-up: scale not given: the % may be the effect or the level left
Mus musculus [53] = assay: Anti-analeptic activity in mouse assessed as reduction in convulsion at 125 to 150 mg/kg coadministered with camphor relative to control; format: functional; set-up: scale not given: the % may be the effect or the level left; conditions: dose 125-150 mg/kg
Mus musculus [54] = organism: Mus musculus; assay: animal or person
Description: Antinociceptive activity in naloxone treated mouse assessed as induction of Straub-tail response

Mus musculus [55] = organism: Mus musculus; assay: animal or person; remark: listed apart in the source
Description: Antinociceptive activity against mecamylamine-treated mouse

Mus musculus [56] = organism: Mus musculus; assay: animal or person; remark: listed apart in the source
Description: Antinociceptive activity in mouse

[57] = Toxicity in iv dosed rat; format: organism-based; conditions: in vivo
[58] = molecular target: Neuronal acetylcholine receptor subunit alpha-7 (Homo sapiens, UniProt P36544)
Description: Displacement of [125I]alpha-bungarotoxin from human alpha7 nAChR expressed in K28 cell membrane

[59] = Displacement of [3H]-(-)-nicotine from rat cerebral cortex nAChR incubated for 60 mins by liquid scintillation spectrometry

T2 sequence (P09483 whole entry): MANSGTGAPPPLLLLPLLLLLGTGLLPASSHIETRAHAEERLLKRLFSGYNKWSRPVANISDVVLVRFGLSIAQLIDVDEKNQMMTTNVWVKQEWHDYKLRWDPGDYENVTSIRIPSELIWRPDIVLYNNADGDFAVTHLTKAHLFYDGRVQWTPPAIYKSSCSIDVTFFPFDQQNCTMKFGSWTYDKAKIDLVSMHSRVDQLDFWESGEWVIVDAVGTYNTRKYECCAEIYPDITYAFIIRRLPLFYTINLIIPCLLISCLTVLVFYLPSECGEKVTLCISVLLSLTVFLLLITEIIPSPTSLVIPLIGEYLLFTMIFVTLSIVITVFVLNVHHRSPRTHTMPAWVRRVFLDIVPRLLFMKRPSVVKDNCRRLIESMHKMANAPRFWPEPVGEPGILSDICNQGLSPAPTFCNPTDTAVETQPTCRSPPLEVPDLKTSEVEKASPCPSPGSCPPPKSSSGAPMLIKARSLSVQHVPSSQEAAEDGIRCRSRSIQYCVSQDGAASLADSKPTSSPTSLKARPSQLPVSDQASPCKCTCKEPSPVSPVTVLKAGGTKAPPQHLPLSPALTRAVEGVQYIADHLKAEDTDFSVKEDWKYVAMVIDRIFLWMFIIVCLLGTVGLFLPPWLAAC
T2 sequence (P12390 whole entry): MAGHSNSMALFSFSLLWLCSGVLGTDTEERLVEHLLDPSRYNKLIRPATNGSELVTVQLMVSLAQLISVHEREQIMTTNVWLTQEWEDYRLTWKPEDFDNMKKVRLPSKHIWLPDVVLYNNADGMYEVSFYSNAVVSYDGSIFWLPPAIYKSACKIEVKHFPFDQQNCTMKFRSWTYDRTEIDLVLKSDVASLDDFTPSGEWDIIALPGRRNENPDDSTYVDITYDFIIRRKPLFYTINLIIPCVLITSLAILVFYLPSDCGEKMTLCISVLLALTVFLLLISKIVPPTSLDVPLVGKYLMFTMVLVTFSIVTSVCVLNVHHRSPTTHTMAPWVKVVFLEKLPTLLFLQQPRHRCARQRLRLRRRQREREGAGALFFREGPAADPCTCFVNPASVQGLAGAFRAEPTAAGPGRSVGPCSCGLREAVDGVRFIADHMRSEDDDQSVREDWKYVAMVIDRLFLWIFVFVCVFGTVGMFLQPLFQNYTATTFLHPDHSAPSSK
T1 sequence (Q05941 whole entry): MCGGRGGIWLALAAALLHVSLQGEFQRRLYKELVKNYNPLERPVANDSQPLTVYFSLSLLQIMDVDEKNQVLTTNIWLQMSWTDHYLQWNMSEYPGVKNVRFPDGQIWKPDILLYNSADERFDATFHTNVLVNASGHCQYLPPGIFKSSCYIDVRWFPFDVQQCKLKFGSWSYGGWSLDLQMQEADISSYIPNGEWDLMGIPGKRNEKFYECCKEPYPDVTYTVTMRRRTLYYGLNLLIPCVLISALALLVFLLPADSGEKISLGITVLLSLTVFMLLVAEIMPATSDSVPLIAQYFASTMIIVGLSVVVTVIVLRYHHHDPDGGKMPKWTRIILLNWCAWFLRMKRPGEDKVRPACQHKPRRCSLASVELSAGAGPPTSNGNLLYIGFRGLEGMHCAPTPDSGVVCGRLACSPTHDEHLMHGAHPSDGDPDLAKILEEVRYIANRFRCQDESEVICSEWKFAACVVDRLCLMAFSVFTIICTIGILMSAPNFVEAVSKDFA
Sequence of Neuronal acetylcholine receptor subunit alpha-7 (Rattus norvegicus) (Q05941 whole entry): as above
Sequence of Acetylcholinesterase (P23795 whole entry): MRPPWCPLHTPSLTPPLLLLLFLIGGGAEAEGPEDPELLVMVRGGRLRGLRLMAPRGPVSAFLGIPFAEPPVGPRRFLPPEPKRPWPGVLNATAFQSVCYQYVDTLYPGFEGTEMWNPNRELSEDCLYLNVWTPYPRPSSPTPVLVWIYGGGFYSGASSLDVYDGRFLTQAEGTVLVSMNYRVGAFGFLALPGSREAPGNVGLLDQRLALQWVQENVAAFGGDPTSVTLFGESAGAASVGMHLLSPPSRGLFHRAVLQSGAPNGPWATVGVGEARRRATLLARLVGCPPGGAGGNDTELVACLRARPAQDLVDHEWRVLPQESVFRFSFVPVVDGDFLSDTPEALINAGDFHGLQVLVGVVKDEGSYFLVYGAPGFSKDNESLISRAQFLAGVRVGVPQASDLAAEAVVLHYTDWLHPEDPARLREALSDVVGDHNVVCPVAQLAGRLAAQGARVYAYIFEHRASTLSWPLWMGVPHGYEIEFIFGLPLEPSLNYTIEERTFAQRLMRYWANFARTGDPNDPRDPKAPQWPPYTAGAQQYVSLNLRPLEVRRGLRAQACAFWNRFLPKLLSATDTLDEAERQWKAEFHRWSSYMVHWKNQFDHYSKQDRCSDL
Sequence of 5-hydroxytryptamine receptor 3A (P46098 whole entry): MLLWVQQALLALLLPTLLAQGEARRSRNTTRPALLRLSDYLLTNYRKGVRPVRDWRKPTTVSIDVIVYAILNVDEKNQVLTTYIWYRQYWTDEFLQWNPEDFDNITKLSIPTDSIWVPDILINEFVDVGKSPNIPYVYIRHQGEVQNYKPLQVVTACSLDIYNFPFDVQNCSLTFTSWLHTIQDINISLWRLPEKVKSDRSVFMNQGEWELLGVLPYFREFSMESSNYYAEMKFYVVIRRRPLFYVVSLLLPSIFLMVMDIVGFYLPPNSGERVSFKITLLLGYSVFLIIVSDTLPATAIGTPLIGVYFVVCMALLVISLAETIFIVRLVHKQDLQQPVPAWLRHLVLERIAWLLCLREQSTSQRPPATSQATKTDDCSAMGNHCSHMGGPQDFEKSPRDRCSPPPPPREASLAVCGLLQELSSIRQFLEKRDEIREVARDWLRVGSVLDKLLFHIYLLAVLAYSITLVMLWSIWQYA
Sequence of Endothelin receptor type B (P24530 whole entry): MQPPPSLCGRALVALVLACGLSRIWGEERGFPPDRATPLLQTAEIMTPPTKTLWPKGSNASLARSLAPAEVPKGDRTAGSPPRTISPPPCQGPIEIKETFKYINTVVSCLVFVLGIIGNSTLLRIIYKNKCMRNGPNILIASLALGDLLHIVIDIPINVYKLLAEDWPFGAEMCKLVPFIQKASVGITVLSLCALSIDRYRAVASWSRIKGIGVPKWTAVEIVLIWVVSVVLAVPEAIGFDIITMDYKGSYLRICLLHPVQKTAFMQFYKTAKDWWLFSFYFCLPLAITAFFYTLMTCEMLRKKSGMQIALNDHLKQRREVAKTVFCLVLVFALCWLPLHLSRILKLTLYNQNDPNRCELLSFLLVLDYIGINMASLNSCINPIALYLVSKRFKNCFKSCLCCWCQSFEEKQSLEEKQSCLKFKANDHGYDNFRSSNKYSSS
Sequence of D(3) dopamine receptor (P35462 whole entry): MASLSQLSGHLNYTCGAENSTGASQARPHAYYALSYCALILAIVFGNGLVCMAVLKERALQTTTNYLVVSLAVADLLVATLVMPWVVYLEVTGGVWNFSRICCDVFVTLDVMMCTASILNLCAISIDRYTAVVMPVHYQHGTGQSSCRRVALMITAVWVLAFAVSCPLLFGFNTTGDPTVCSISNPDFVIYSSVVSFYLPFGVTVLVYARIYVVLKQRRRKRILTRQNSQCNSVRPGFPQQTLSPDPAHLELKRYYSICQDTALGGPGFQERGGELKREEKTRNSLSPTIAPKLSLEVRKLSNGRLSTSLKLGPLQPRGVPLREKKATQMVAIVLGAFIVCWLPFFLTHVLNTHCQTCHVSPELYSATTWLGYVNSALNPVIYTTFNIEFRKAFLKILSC
Sequence of GABA-A receptor alpha-1/beta-1 (P08220 whole entry): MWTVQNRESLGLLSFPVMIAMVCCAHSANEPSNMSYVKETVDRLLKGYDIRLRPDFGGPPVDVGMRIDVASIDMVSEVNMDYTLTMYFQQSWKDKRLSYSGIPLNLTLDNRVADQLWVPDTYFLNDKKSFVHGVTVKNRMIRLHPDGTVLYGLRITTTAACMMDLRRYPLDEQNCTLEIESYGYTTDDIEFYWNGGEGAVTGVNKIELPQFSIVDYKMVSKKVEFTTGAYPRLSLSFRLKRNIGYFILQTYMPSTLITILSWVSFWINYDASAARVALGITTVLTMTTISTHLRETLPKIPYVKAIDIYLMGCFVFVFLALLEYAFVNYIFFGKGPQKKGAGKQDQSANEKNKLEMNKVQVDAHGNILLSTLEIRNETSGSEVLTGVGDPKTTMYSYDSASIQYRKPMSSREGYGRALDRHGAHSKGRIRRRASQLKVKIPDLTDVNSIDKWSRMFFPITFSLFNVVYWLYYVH
Sequence of GABA-A receptor alpha-1/beta-1 (P08219 whole entry): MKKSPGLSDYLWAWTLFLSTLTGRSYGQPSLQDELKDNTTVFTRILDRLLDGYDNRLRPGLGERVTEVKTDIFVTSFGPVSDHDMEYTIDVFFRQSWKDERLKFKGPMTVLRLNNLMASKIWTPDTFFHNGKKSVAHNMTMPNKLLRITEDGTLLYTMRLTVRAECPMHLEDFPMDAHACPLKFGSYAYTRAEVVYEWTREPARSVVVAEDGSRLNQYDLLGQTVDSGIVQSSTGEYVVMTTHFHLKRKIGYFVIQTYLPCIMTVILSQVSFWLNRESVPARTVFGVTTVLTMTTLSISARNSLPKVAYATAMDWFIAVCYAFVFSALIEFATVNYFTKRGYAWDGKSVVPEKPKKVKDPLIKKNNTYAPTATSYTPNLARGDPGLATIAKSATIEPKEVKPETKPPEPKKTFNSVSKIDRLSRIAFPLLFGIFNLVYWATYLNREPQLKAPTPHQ
Sequence of Neuropeptide Y receptor type 2 (P49146 whole entry): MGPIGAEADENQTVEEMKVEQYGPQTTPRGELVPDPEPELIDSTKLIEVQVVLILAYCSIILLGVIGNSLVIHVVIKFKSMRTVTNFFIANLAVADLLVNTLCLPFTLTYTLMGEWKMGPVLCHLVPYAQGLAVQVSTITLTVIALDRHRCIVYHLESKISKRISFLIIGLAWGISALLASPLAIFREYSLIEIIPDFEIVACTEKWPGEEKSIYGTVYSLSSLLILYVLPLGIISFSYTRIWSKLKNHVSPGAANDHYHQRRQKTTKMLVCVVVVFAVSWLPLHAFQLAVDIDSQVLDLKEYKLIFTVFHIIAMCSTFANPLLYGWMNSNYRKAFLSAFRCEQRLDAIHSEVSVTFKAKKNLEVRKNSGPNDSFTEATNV

## O=C([O-])c1ccc[n+](CCOC(=O)c2ccc[nH]2)c1
[1]
  Activity: 25.1%
[2]
  Activity: 63.5%
[3]
  Activity: 65.4%
[4]
  Activity: 58.1%

## c1cncc([C@@H]2CCCN2)c1 [NORNICOTINE]
[5]
  EC50: 614 µM
[6]
  EC50: 17.4 µM

## C[n+]1cccc(C(=O)[O-])c1 [TRIGONELLINE]
[7]
  Ki: 0.013 µM
Acetylcholinesterase
  IC50: 233 µM

## CN(C)CC/C=C/c1cccnc1
[8]
  IC50: > 10 µM
[9]
  IC50: > 10 µM
Rattus norvegicus [10]
  Activity: 40%
[11]
  EC50: 0.732 µM
[12]
  IC50: > 10 µM
[13]
  Ki: 0.026 µM
Rattus norvegicus [14]
  fold change (FC): 2
Histamine H3 receptor
  IC50: > 10 µM
[15]
  IC50: > 10 µM
[16]
  IC50: > 10 µM
[17]
  IC50: > 10 µM
[18]
  LD50 at 672 h: 1.8e+06 µmol/kg
[19]
  IC50: > 10 µM
[20]
  Activity: 150%
Endothelin-1 receptor
  IC50: > 10 µM
[21]
  IC50: > 10 µM
[22]
  LD50 at 672 h: 1.8e+06 µmol/kg
D(3) dopamine receptor
  IC50: > 10 µM
[23]
  IC50: > 10 µM
[24]
  Activity: 190%
[25]
  IC50: > 10 µM
[26]
  Activity: 492%
Rattus norvegicus [27]
  Activity: 50%
Rattus norvegicus [28]
  Emax: 81%
[29]
  LD50 at 672 h: 1.8e+06 µmol/kg
[30]
  IC50: > 10 µM
[31]
  LD50 at 672 h: 1.8e+06 µmol/kg
[32]
  Emax: 79%
Thromboxane A2 receptor
  IC50: > 10 µM
[33]
  IC50: > 10 µM
[34]
  IC50: > 10 µM
[35]
  Activity: 150%
[36]
  Activity: 170%
[37]
  IC50: > 10 µM
B2 bradykinin receptor
  IC50: > 10 µM
[38]
  IC50: > 10 µM
[39]
  IC50: > 10 µM

## O=C([O-])c1ccc[n+](CCOC(=O)c2cc(Br)c[nH]2)c1
[40]
  IC50: 80 µM

## c1cncc(C2=NCCCC2)c1 [ANABASEINE]
[41]
  Ratio Ki: 7
[42]
  Ratio EC50: 7
[43]
  EC50: 4.2 µM
[44]
  Ki: 0.032 µM
[45]
  Ki: 0.058 µM
[46]
  EC50: 6.7 µM
[47]
  Ratio EC50: 3

## COc1c2c(nc3occc13)[C@@](CC=C(C)C)(OC)[C@H](O)CC2
Mus musculus [48]
  Activity: 50%
Mus musculus [49]
  Activity: 100%
[50]
  Activity: 100%
[51]
  Activity: 80%
Mus musculus [52]
  Activity: 100%
Mus musculus [53]
  Activity: 50%

## Clc1ccc(C2CC3CCC2N3)cn1 (stereo in doubt; (+)) [EPIBATIDINE]
Mus musculus [54]
  ED50: 0.02 mg/kg
Mus musculus [55]
  ED50: 0.289 mg/kg
Mus musculus [56]
  ED50: 0.0136 mg/kg
[57]
  LD50: < 0.125 µmol/kg
[58]
  Ki: 0.0022 µM
[59]
  IC50: 0.0001 µM
